In patent publication US20260152480A1, “POLYCYCLIC COMPOUND AND USE THEREOF” (TYK MEDICINES , INC., priority 2022, published 2026):
pIC50: −log10 of the molar value.

System: Human pleural mesothelioma cells NCI-H226
Test: Proliferation inhibition assay of human pleural mesothelioma cells NCI-H226 (CCK8)
Format: cell-based
Conditions: 72 h, 3 days incubation
Excerpt: Experimental Example 1 Cell Anti-Proliferation Test
Proliferation Inhibition Assay of Human Pleural Mesothelioma Cells NCI-H226 by YAP-TEAD Inhibitor Compounds
Experimental materials and equipment: Human pleural mesothelioma cells NCI-H226 were purchased from Nanjing Cobioer Biosciences CO., LTD. RPMI-1640 medium (Bio-Channel), DMSO (dimethyl sulfoxide), CCK8 (WST-8) cell analysis kit (Beyotime), 0.25% EDTA-Tripsin (trypsin solution), 1×PBS (phosphate buffer, PH7.2), 96-well plate (Corning), fetal bovine serum (FBS), 10,000 U/mL penicillin-G/streptomycin, high-speed cryo-centrifuge (EPPENDORF 5810R), enzyme-linked immunoassay (Tecan Spark).
• A) Tumor cells were cultured in RPMI-1640 (containing 10% FBS and 100 U/mL penicillin-G/streptomycin) at 37° C., 5% CO^2 and saturated humidity until 80-90% density. • B) Removed the culture medium from 10 cm Petri dishes; • C) Rinsed the cells once with 10 ml 1×PBS; • D) Added 4 ml 0.25% EDTA-Tripsin into 37° C., 5% CO^2 incubator for trypsin digestion for 5 minutes, transferred to 15 ml centrifuge tube, centrifuged at 200 g for 5 minutes, discarded the supernatant to get cell precipitate; • E) Resuspend with 4 ml DMEM medium, count and adjust to 10,000 cells/ml. • F) Added cell suspension to 96-well plate with 100 μL per well volume and incubate overnight at 37° C., 5% CO^2 incubator.
• A) Preparation of gradient dilution solution of tested compounds: the test compounds were configured into 1 mM reservoir solution. Then 1.5 μl of the reservoir solution was dissolved in 1.5 ml of DMSO-free culture solution, and then a 3-fold serial gradient dilution was performed with 0.1% DMSO culture solution for a total of 9 concentrations, and the concentrations of the compounds after dilution were as follows: • 333.33 nM, 111.11 nM, 37.03 nM, 12.35 nM, 4.15 nM, 1.37 nM, 0.46 nM, 0.15 nM • B) After thorough mixing, 100 μL of culture compound solution was taken separately to replace the culture solution in the cell culture plate, with 4 replicate wells for each concentration; • C) The cells were transferred to the incubator and incubated for 3 days.
• A) Removed the cell culture plate and added 10 μl of CCK-8 (WST-8) solution per well in the biosafety cabinet. • B) Placed the cell culture plate back into the incubator and continued incubation for 3 hours. • C) Determined the absorbance value by selecting 450 nm on a TECAN enzyme-linked immunoassay detector.
The cell viability (% Cell Viability) was calculated using the following formula.
[formula] • A (dosing): absorbance of wells with cells, CCK8 solution and drug solution • A (blank): absorbance of wells with medium and CCK8 solution but no cells • A (0 dosing): absorbance of wells with cells, CCK8 solution and no drug solution • Cell viability: Cell proliferation viability or cytotoxicity viability IC50 values were obtained by curve fitting with GraphPad Prism 8 software.

SMILES	pIC50
C=CC(=O)N1CCC(c2cccnc2Nc2ccc(S(F)(F)(F)(F)F)cc2)C1 (stereo not shown) [Compound T8]	≥ 7.00
C=CC(=O)N1CCC(c2nccnc2Oc2ccc(C(F)(F)F)cc2)CC1 [Compound T58]	≥ 7.00
C=CC(=O)N1CCC(c2nc(C(F)(F)F)cnc2Nc2ccc(C(F)(F)F)cc2)CC1 [Compound T83]	≥ 7.00
C=CC(=O)N1CCC(c2cc(OC)cnc2Nc2ccc(C(F)(F)F)cc2)CC1 [Compound T34]	6.00 to 7.00

Other lines, results leading:

pIC50	SMILES
5.30 to 6.00	C=CC(=O)N1CCC(c2cc(-c3cnn(C)c3)cnc2Nc2ccc(C(F)(F)F)cc2)CC1 [Compound T61]
≥ 7.00	C=CC(=O)N1CCC(c2cc(Cl)cnc2Oc2ccc(C(F)(F)F)cc2)CC1 [Compound T40]
≥ 7.00	C=CC(=O)N1CC(c2cccnc2Nc2ccc(S(F)(F)(F)(F)F)cc2)C1 [Compound T10]
≥ 7.00	C=CC(=O)N1CCC(c2cc(-c3ccccc3)cnc2Nc2ccc(C(F)(F)F)cc2)CC1 [Compound T56]

System: YAP-TEAD
Test: Nano luciferase method to detect YAP-TEAD inhibitor activity (293T cells transfected with pGL3B-8×GTiiC-nLuc-CMV-fLuc)
Format: cell-based
Conditions: Homo sapiens, HEK-293T; transfected 293T cells, 48 hours incubation; read-out: Nano Luciferas detection (IC50)
Excerpt: Experimental Example 2 Nano Luciferase Method to Detect YAP-TEAD Inhibitor Activity
(1) Experimental materials and equipment: 293T cells were purchased from Nanjing Cobioer Biosciences CO., LTD. DMEM medium (high sugar, phenol red free, Bio-Channel), DMSO (dimethyl sulfoxide), Lipo6000™ transfection reagent (Beyotime), pGL3B-8×GTiiC-nLuc-CMV-fLuc plasmid, 0.25% EDTA Tripsin (trypsin solution), 1×PBS (phosphate buffer, PH7.2), 96-well white cell culture plate (PerkinElmer), Fetal Bovine Serum (FBS), 10,000 U/mL penicillin-G/streptomycin, High-speed cryo-centrifuge (EPPENDORF 5810R), 37° C. CO^2 incubator, Vi-Cell® cell counter, Envision microplate reader (PerkinElmer).
Resuscitated 293T cells were inoculated into 10 cm petri dishes and placed in a 5% CO^2 incubator at a constant temperature of 37° C. To ensure transfection efficiency, cells in the logarithmic phase (cell density of about 50%-70%) should be used.
One day before transfection, cells in logarithmic phase were digested with Trypsin-EDTA, the reaction was terminated by adding medium, and the cell suspension was made by blowing and mixing with a pipette.
The cell concentration was determined using Vi-cell and diluted to a suspension of 5*10^5 cells per milliliter. Once the cell suspension was prepared, it was gently mixed and 10 ml of liquid was added to a 10 cm petri dish. […] The cells were incubated in a 5% CO^2 incubator at 37° C. for 1 day.
Take two clean and sterile centrifuge tubes, added 750 μL of opti-MEM Medium without antibiotics and serum respectively, then added […] of plasmid (pGL3B-8×GTiiC-nLuc-CMV-fLuc) to one of the tubes and gently blown with a pipette for mixing; the other tube was added with Lipo6000 transfection reagent and gently blown with a pipette for mixing. After standing at room temperature for 5 minutes, the culture medium containing DNA was gently added to the culture medium containing Lipo6000 transfection reagent, mixed by gently inverting the centrifuge tube, and stood at room temperature for 5 minutes.
The above mixture was added evenly dropwise to a 10-cm petri dish and replaced with fresh complete medium after 6 h of incubation.
After 1 day of transfection, Trypsin EDTA was used to digest the cells, medium was added to terminate the reaction, and a cell suspension was made by blowing and mixing with a pipette.
Cell concentration was determined using Vi-cell, and diluted to a suspension of 20,000 cells per milliliter.
After the cell suspension was prepared, it was gently mixed and 100 μL was added to each well in a 96-well plate so that the density of cells to be measured was 2000 per well.
The inoculated cell culture plates were incubated in an incubator, and the compounds in concentration gradients were added after about 24 hours.
The 10 mM compound reservoir solution was diluted to 50 μM with culture medium, and 50 μM compound solution was added sequentially to the third column of the deep-well plate, and 216 μL of culture medium containing 0.5% DMSO to the fourth to eleventh columns.
Gradient dilution: 100 μL of solution was pipetted from the third column and added to the fourth column, after mixing; another 100 μL of solution was pipetted from the fourth column and added to the fifth column, and the operation was repeated until the eleventh column.
Using a multichannel pipette, 25 μL of compound solution was pipetted from the deep-well plate and added to the 96-well culture plate, and each compound was repeated four times on the 96-well plate. A concentration gradient with a maximum concentration of 10,000 nM, 1:3.16, was eventually formed on the 96-well plate.
The 96-well plate was incubated in a 5% CO^2 incubator at a constant temperature of 37° C. for 48 hours, then removed and equilibrated at room temperature for 10 minutes.
100 μL of detection reagent was added to each well and placed on a horizontal shaker at low speed for 10 minutes to fully lyse the cells. […]

SMILES	pIC50
C=CC(=O)N1CCC(c2cccnc2Nc2ccc(S(F)(F)(F)(F)F)cc2)C1 (stereo not shown) [Compound T8]	≥ 7.00
C=CC(=O)N1CCC(c2nccnc2Oc2ccc(C(F)(F)F)cc2)CC1 [Compound T58]	≥ 7.00
C=CC(=O)N1CCC(c2nc(C(F)(F)F)cnc2Nc2ccc(C(F)(F)F)cc2)CC1 [Compound T83]	≥ 7.00
C=CC(=O)N1CCC(c2cc(OC)cnc2Nc2ccc(C(F)(F)F)cc2)CC1 [Compound T34]	6.00 to 7.00

The remaining lines, values ahead:

pIC50	SMILES
≥ 7.00	C=CC(=O)N1CCC(c2cc(-c3cnn(C)c3)cnc2Nc2ccc(C(F)(F)F)cc2)CC1 [Compound T61]
≥ 7.00	C=CC(=O)N1CCC(c2cc(Cl)cnc2Oc2ccc(C(F)(F)F)cc2)CC1 [Compound T40]
≥ 7.00	C=CC(=O)N1CC(c2cccnc2Nc2ccc(S(F)(F)(F)(F)F)cc2)C1 [Compound T10]
≥ 7.00	C=CC(=O)N1CCC(c2cc(-c3ccccc3)cnc2Nc2ccc(C(F)(F)F)cc2)CC1 [Compound T56]

System: not listed separately
Test: Pharmacokinetic study of the drug, oral administration to rats (plasma, cerebrospinal fluid, brain tissue)
Format: in vivo
Conditions: SD rat, 10 mg/kg, single
Excerpt: Experimental Example 3 Pharmacokinetic Study of the Drug
Oral Administration Solvent: 5% DMSO+10% Solutol HS15+85% Saline
Oral administration preparation process: weighed the appropriate amount of powder, added the appropriate volume of DMSO, vortex, then added the appropriate volume of Solutol solution, vortex, and added the appropriate amount of saline, vortex ultrasound into a homogeneous and clarified state of the preparation solution.
The animal room was equipped with an air-conditioning system and well ventilated, and the indoor temperature was maintained in the range of 20-26° C., and the humidity was maintained in the range of 40%-70%. The animal room was artificially illuminated with 12 hours of light and 12 hours of dark (except for the working light that needed to be turned on for experimental operation and cleaning), and the experimental animals were free to feed and drink.
Animals were purchased and fed normally for at least 3 days, and rats that were examined by a veterinarian and had qualified physical conditions were enrolled in this experiment; each rat was labeled with a tail mark. Animals in the oral administration group were fasted overnight the day before administration, and resumed feeding and drinking freely 4 hours after administration.
Before administration, checked the state of the administered preparation, ensured the homogeneity of the preparation by vortexing, stirring or oscillating, and calculated the theoretical volume of the administered drug for each SD rat in each group according to the following formula.
Mode of administration: Oral administration to rats, fasted overnight prior to administration.

HL— [h]	SMILES
2.95	C=CC(=O)N1CCC(c2cc(-c3cnn(C)c3)cnc2Nc2ccc(C(F)(F)F)cc2)CC1 [Compound T61]
4.40	C=CC(=O)N1CCC(c2cc(Cl)cnc2Oc2ccc(C(F)(F)F)cc2)CC1 [Compound T40]
2.67	C=CC(=O)N1CCC(c2nccnc2Oc2ccc(C(F)(F)F)cc2)CC1 [Compound T58]

Same assay, conditions: SD rat, 10 mg/kg, single, brain tissue (post perfusion) and plasma, read-out: B/P value

Kp	SMILES
0.56	C=CC(=O)N1CCC(c2cc(-c3cnn(C)c3)cnc2Nc2ccc(C(F)(F)F)cc2)CC1 [Compound T61]
1.88	C=CC(=O)N1CCC(c2cc(Cl)cnc2Oc2ccc(C(F)(F)F)cc2)CC1 [Compound T40]
2.01	C=CC(=O)N1CCC(c2nccnc2Oc2ccc(C(F)(F)F)cc2)CC1 [Compound T58]

Same assay, conditions: in vivo, SD rat, 10 mg/kg, single, read-out: Kpuu Value

Kp uu	SMILES
0.038	C=CC(=O)N1CCC(c2cc(-c3cnn(C)c3)cnc2Nc2ccc(C(F)(F)F)cc2)CC1 [Compound T61]
0.286	C=CC(=O)N1CCC(c2cc(Cl)cnc2Oc2ccc(C(F)(F)F)cc2)CC1 [Compound T40]
0.269	C=CC(=O)N1CCC(c2nccnc2Oc2ccc(C(F)(F)F)cc2)CC1 [Compound T58]

Same assay, conditions: plasma, SD rat, 10 mg/kg, single

AUC(0-inf) [ng·h/mL]	AUC(0-t) [ng·h/mL]	Cmax [ng/mL]	MRT last [h]	Tmax [h]	SMILES
13200	10800	1960	3.49	2.67	C=CC(=O)N1CCC(c2cc(-c3cnn(C)c3)cnc2Nc2ccc(C(F)(F)F)cc2)CC1 [Compound T61]
18000	17500	1650	6.75	1.67	C=CC(=O)N1CCC(c2cc(Cl)cnc2Oc2ccc(C(F)(F)F)cc2)CC1 [Compound T40]
7560	7540	1180	5.81	2	C=CC(=O)N1CCC(c2nccnc2Oc2ccc(C(F)(F)F)cc2)CC1 [Compound T58]
